pIC50: −log10 of the molar value.
Test system: 885724-159-R-J1-PDC complex spheroid viability
Assay: Anticancer human tumor 885724-159-R-J1-PDC patient-derived pancreatic adenocarcinoma cell line growth inhibition [GQUAD]
Conditions: for pIC50: curve of first compound; for viability, T/C: stronger effect = lower value
Method in brief: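 Multi-cell-type spheroids of tumor cells with HUVEC and mesenchymal stem cells, treated with drug combinations. Concentrations descend in half-log steps from near clinical Cmax, or from 10 microM where Cmax is unknown; viability read-out.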

[1] = second compound 0.0316 µM, first compound 0.0316 µM
[2] = second compound 0.0316 µM, first compound 0.316 µM
[3] = second compound 0.1 µM, first compound 0.0316 µM
[4] = second compound 0.1 µM, first compound 0.316 µM
[5] = second compound 0.316 µM, first compound 0.0316 µM
[6] = second compound 0.316 µM, first compound 0.316 µM
[7] = second compound 1 µM, first compound 0.0316 µM
[8] = second compound 1 µM, first compound 0.316 µM
[9] = second compound 3.16 µM, first compound 0.0316 µM
[10] = second compound 3.16 µM, first compound 0.316 µM
[11] = second compound 10 µM, first compound 0.0316 µM
[12] = second compound 10 µM, first compound 0.316 µM
[13] = second compound 0.0316 µM, first compound 0.1 µM
[14] = second compound 0.0316 µM, first compound 1 µM
[15] = second compound 0.0316 µM, first compound 3.16 µM
[16] = second compound 0.0316 µM, first compound 10 µM
[17] = second compound 0.1 µM, first compound 0.1 µM
[18] = second compound 0.1 µM, first compound 1 µM
[19] = second compound 0.1 µM, first compound 3.16 µM
[20] = second compound 0.1 µM, first compound 10 µM
[21] = second compound 0.316 µM, first compound 0.1 µM
[22] = second compound 0.316 µM, first compound 1 µM
[23] = second compound 0.316 µM, first compound 3.16 µM
[24] = second compound 0.316 µM, first compound 10 µM
[25] = second compound 1 µM, first compound 0.1 µM
[26] = second compound 1 µM, first compound 1 µM
[27] = second compound 1 µM, first compound 3.16 µM
[28] = second compound 1 µM, first compound 10 µM
[29] = second compound 3.16 µM, first compound 0.1 µM
[30] = second compound 3.16 µM, first compound 1 µM
[31] = second compound 3.16 µM, first compound 3.16 µM
[32] = second compound 3.16 µM, first compound 10 µM
[33] = second compound 10 µM, first compound 0.1 µM
[34] = second compound 10 µM, first compound 1 µM
[35] = second compound 10 µM, first compound 3.16 µM
[36] = second compound 10 µM, first compound 10 µM
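Note: spheroids exposed to agents for seven days before readout.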
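Throughout, for viability, T/C: percent of vehicle control viability where 100% = DMSO wells.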

## Cc1[nH]c2ccccc2c1CCNCc1ccc(/C=C/C(=O)NO)cc1 + Cc1[nH]c2ccc(F)cc2c1-c1nc2c3cccnc3c3ncccc3c2[nH]1
Second compound 0.0316 µM
  pIC50: 6.57
Second compound 0.1 µM
  pIC50: 6.52
Second compound 0.316 µM
  pIC50: 6.55
Second compound 1 µM
  pIC50: 6.67
Second compound 3.16 µM
  pIC50: > 9.00
Second compound 10 µM
  pIC50: 6.65
Second compound 0.0316 µM, first compound 0.000999 µM
  viability, T/C: 87%
Second compound 0.0316 µM, first compound 0.00316 µM
  viability, T/C: 99%
Second compound 0.0316 µM, first compound 0.00999 µM
  viability, T/C: 93.4%
[1]
  viability, T/C: 98.2%
Second compound 0.0316 µM, first compound 0.0999 µM
  viability, T/C: 106%
[2]
  viability, T/C: 42.8%
Second compound 0.1 µM, first compound 0.000999 µM
  viability, T/C: 95.9%
Second compound 0.1 µM, first compound 0.00316 µM
  viability, T/C: 90.3%
Second compound 0.1 µM, first compound 0.00999 µM
  viability, T/C: 87.8%
[3]
  viability, T/C: 95%
Second compound 0.1 µM, first compound 0.0999 µM
  viability, T/C: 99.6%
[4]
  viability, T/C: 48.5%
Second compound 0.316 µM, first compound 0.000999 µM
  viability, T/C: 101%
Second compound 0.316 µM, first compound 0.00316 µM
  viability, T/C: 77.9%
Second compound 0.316 µM, first compound 0.00999 µM
  viability, T/C: 83.1%
[5]
  viability, T/C: 81.2%
Second compound 0.316 µM, first compound 0.0999 µM
  viability, T/C: 78.9%
[6]
  viability, T/C: 46.4%
Second compound 1 µM, first compound 0.000999 µM
  viability, T/C: 75.5%
Second compound 1 µM, first compound 0.00316 µM
  viability, T/C: 60.8%
Second compound 1 µM, first compound 0.00999 µM
  viability, T/C: 66.4%
[7]
  viability, T/C: 57.8%
Second compound 1 µM, first compound 0.0999 µM
  viability, T/C: 82.2%
[8]
  viability, T/C: 40.3%
Second compound 3.16 µM, first compound 0.000999 µM
  viability, T/C: 18.1%
Second compound 3.16 µM, first compound 0.00316 µM
  viability, T/C: 13.1%
Second compound 3.16 µM, first compound 0.00999 µM
  viability, T/C: 19.2%
[9]
  viability, T/C: 11.5%
Second compound 3.16 µM, first compound 0.0999 µM
  viability, T/C: 21.2%
[10]
  viability, T/C: 31.6%
Second compound 10 µM, first compound 0.000999 µM
  viability, T/C: 68.1%
Second compound 10 µM, first compound 0.00316 µM
  viability, T/C: 75.2%
Second compound 10 µM, first compound 0.00999 µM
  viability, T/C: 64%
[11]
  viability, T/C: 69.7%
Second compound 10 µM, first compound 0.0999 µM
  viability, T/C: 81.6%
[12]
  viability, T/C: 41.2%

## O=C(NO)c1cnc(N2CCN(S(=O)(=O)c3ccc4ccccc4c3)CC2)nc1 + Cc1[nH]c2ccc(F)cc2c1-c1nc2c3cccnc3c3ncccc3c2[nH]1
Second compound 0.0316 µM
  pIC50: 6.06
Second compound 0.1 µM
  pIC50: 6.08
Second compound 0.316 µM
  pIC50: 6.05
Second compound 1 µM
  pIC50: 6.15
Second compound 3.16 µM
  pIC50: > 7.50
Second compound 10 µM
  pIC50: 6.10
[1]
  viability, T/C: 101%
[13]
  viability, T/C: 96.9%
[2]
  viability, T/C: 108%
[14]
  viability, T/C: 42.3%
[15]
  viability, T/C: 2.03%
[16]
  viability, T/C: 0.22%
[3]
  viability, T/C: 101%
[17]
  viability, T/C: 106%
[4]
  viability, T/C: 82%
[18]
  viability, T/C: 47.1%
[19]
  viability, T/C: 2.38%
[20]
  viability, T/C: 0.21%
[5]
  viability, T/C: 90.7%
[21]
  viability, T/C: 83%
[6]
  viability, T/C: 95.6%
[22]
  viability, T/C: 45.7%
[23]
  viability, T/C: 3.31%
[24]
  viability, T/C: 0.18%
[7]
  viability, T/C: 69.2%
[25]
  viability, T/C: 55.7%
[8]
  viability, T/C: 94.9%
[26]
  viability, T/C: 39.9%
[27]
  viability, T/C: 2.39%
[28]
  viability, T/C: 0.24%
[9]
  viability, T/C: 14.8%
[29]
  viability, T/C: 18.3%
[10]
  viability, T/C: 31.6%
[30]
  viability, T/C: 22.1%
[31]
  viability, T/C: 1.99%
[32]
  viability, T/C: 0.22%
[11]
  viability, T/C: 66.2%
[33]
  viability, T/C: 65.6%
[12]
  viability, T/C: 74.6%
[34]
  viability, T/C: 45.5%
[35]
  viability, T/C: 3.66%
[36]
  viability, T/C: 0.26%

## O=c1[nH]cc(F)c(=O)[nH]1 + Cc1[nH]c2ccc(F)cc2c1-c1nc2c3cccnc3c3ncccc3c2[nH]1
Second compound 0.0316 µM
  pIC50: < 5.00
Second compound 0.1 µM
  pIC50: < 5.00
Second compound 0.316 µM
  pIC50: < 5.00
Second compound 1 µM
  pIC50: < 5.00
Second compound 3.16 µM
  pIC50: > 7.50
Second compound 10 µM
  pIC50: < 5.00
[1]
  viability, T/C: 101%
[13]
  viability, T/C: 103%
[2]
  viability, T/C: 98.5%
[14]
  viability, T/C: 95.9%
[15]
  viability, T/C: 97.1%
[16]
  viability, T/C: 86%
[3]
  viability, T/C: 103%
[17]
  viability, T/C: 89.3%
[4]
  viability, T/C: 91%
[18]
  viability, T/C: 93.5%
[19]
  viability, T/C: 93.7%
[20]
  viability, T/C: 86.3%
[5]
  viability, T/C: 107%
[21]
  viability, T/C: 94.7%
[6]
  viability, T/C: 81.6%
[22]
  viability, T/C: 82%
[23]
  viability, T/C: 97.5%
[24]
  viability, T/C: 95.6%
[7]
  viability, T/C: 76.4%
[25]
  viability, T/C: 74.7%
[8]
  viability, T/C: 75%
[26]
  viability, T/C: 70.7%
[27]
  viability, T/C: 68.3%
[28]
  viability, T/C: 69.9%
[9]
  viability, T/C: 39.2%
[29]
  viability, T/C: 42.6%
[10]
  viability, T/C: 41.3%
[30]
  viability, T/C: 41.6%
[31]
  viability, T/C: 45.1%
[32]
  viability, T/C: 42.3%
[11]
  viability, T/C: 66.1%
[33]
  viability, T/C: 77.2%
[12]
  viability, T/C: 70.3%
[34]
  viability, T/C: 71.3%
[35]
  viability, T/C: 81.3%
[36]
  viability, T/C: 62.9%

From PubChem BioAssay AID2060502 (Molecular Pharmacology Branch, DTP, NCI, 2025)
